Measured values taken from patent US8158621B2, “Methods of treating or preventing autoimmune diseases with 2,4-pyrimidinediamine compounds” (Rigel Pharmaceuticals, Inc., priority 2002, dated 2012).
Where two headings read alike, the source gives them in different places.

Assays:
Type in all cases: cell-based
[1] = tested on: cultured human mast cells (CHMC); experiment: CHMC low cell density ionomycin activation: tryptase assay; details: low cell density; read-out: CHMC Ionomycin Tryptase
[2] = tested on: cultured human mast cells (CHMC); experiment: CHMC low cell density IgE activation: tryptase assay
Description: Pellet CHMC cells (980 rpm, 10 min) and resuspend in pre-warmed MT. Add 65 ul of cells to each 96-well plate. Depending on the degranulation activity for each particular CHMC donor, load 1000-1500 cells/well. Mix four times followed by a 1 hr incubation at 37° C. […] Stimulate cells by adding 25 ul of 6× anti-IgE solution to the appropriate plates. Add 25 ul MT to un-stimulated control wells. Mix twice following addition of the anti-IgE. Incubate at 37° C. for 30 minutes. […] Spin plates at 1000 rpm for 10 min to pellet cells. Transfer 25 ul of supernatant to a 96-well black bottom plate and add 100 ul of freshly diluted tryptase substrate solution to each well. Incubate plates at room temperature for 30 min.

[3] = tested on: Human Jurkat T-cells (clone N); experiment: Jurkat T-cell activation (anti-TCR, CD69 upregulation)
Procedure, shortened: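 Readout is CD69 upregulation by flow cytometry (anti-CD69-APC, 20 min at 4 °C) after 20 h anti-TCR (C305, 500 ng/ml) stimulation at 37 °C.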

[4] = Homo sapiens, Mast cell, Low Density CHMC, anti-IgE activation, tryptase release, read-out: CHMC anti-IgE Tryptase IC50
[5] = Homo sapiens, Mast cell, Low Density, read-out: CHMC anti-IgE Tryptase
[6] = low cell density, read-out: CHMC anti-IgE Tryptase

Compound	IC50 [2, 6] [nM]	also measured
CNC(=O)COc1cccc(Nc2ncc(F)c(Nc3ccc4c(c3)NC(=O)C(C)(C(=O)NC)O4)n2)c1 (racemic) [Compound R940365]		IC50 [1]: > 10000 nM
Cc1cc(C)cc(Nc2ncc(F)c(Nc3ccc4c(c3)NC(C)(C)CO4)n2)c1 [Compound R908586]		IC50 [1]: > 10000 nM
COc1ccc(Nc2ncc(F)c(Nc3ccc4c(c3)NC(C)(C)CO4)n2)cc1Cl [Compound R908587]		IC50 [1]: > 10000 nM
CN1C=COc2ccc(Nc3nc(Nc4cccc(O)c4)ncc3F)cc21 [Compound R908710]		IC50 ([2]; Low Density, read-out: CHMC anti-IgE Tryptase): 1840 nM; IC50 [3]: 4280 nM
COc1cc(Nc2ncc(F)c(Nc3ccc4c(c3)NC(=O)[C@@H](C)O4)n2)cc(OC)c1 [Compound R908954]		IC50 [1]: > 10000 nM
O=C1COc2ccc(Nc3ncc(F)c(Nc4cccc(O)c4)n3)cc2N1 [Compound R909238]		IC50 [2, 4]: 174 nM; IC50 ([3]; Homo sapiens, Jurkat): 5020 nM
Oc1cccc(Nc2ncc(F)c(Nc3ccc4c(c3)OCCO4)n2)c1 [Compound R925796]		IC50 [2, 4]: 2000 nM; IC50 ([3]; Homo sapiens, Jurkat): 1830 nM
CCOC(=O)C=C1NN=C(c2cccc(Nc3nc(Cl)ncc3F)c2)O1 [Compound R926873]		IC50 [2, 5]: > 10000 nM; IC50 ([3]; Homo sapiens, Jurkat): > 10000 nM
Fc1cnc(Cl)nc1Nc1ccc(OC(F)(F)F)cc1 [Compound R926875]		IC50 [2, 5]: > 10000 nM; IC50 ([3]; Homo sapiens, Jurkat): > 10000 nM
Fc1cnc(Cl)nc1Nc1ccc(C(F)(F)F)cc1 [Compound R926876]		IC50 [2, 5]: > 10000 nM; IC50 ([3]; Homo sapiens, Jurkat): > 10000 nM
Fc1cnc(Cl)nc1Nc1ccc(Cl)c(C(F)(F)F)c1 [Compound R926877]		IC50 [2, 5]: > 10000 nM; IC50 ([3]; Homo sapiens, Jurkat): > 10000 nM
COc1ccc(Nc2nc(Cl)ncc2F)cn1 [Compound R926878]		IC50 [2, 5]: > 10000 nM; IC50 ([3]; Homo sapiens, Jurkat): > 10000 nM
Fc1ccc(Nc2nc(Cl)ncc2F)cc1F [Compound R926882]		IC50 [2, 5]: > 10000 nM; IC50 ([3]; Homo sapiens, Jurkat): 9050 nM
Fc1cnc(Cl)nc1Nc1ccc(Cl)c(Cl)c1 [Compound R926884]		IC50 [2, 5]: > 10000 nM; IC50 ([3]; Homo sapiens, Jurkat): > 10000 nM
Cc1cccc(Nc2nc(Cl)ncc2F)n1 [Compound R926888]		IC50 [2, 5]: > 10000 nM; IC50 ([3]; Homo sapiens, Jurkat): 5580 nM
COc1cc(Nc2ncc(F)c(Nc3ccc4cnn(C)c4c3)n2)c(OC)cc1Cl [Compound R935421]	2890	
COc1cc(Nc2ncc(F)c(Nc3ccc4cn[nH]c4c3)n2)cc(OC)c1 [Compound R935423]	167	
Cn1ncc2ccc(Nc3nc(Nc4ccc5c(c4)NC(=O)C(C)(C)O5)ncc3F)cc21 [Compound R935424]	628	
Cn1ncc2cc(Nc3ncc(F)c(Nc4ccc(F)c(Cl)c4)n3)ccc21 [Compound R935426]	> 10000	
Fc1ccc(Nc2nc(Nc3ccc4[nH]ncc4c3)ncc2F)cc1Cl [Compound R935428]	1270	
CCOC(=O)CCn1ncc2ccc(Nc3ncc(F)c(Nc4ccc5c(c4)NC(=O)C(C)(C)O5)n3)cc21 [Compound R935434]	308	
CNC(=O)CCn1ncc2ccc(Nc3ncc(F)c(Nc4ccc5c(c4)NC(=O)C(C)(C)O5)n3)cc21 [Compound R935435]	337	
COc1ccc(Nc2nc(Nc3ccc4[nH]ncc4c3)ncc2F)cc1OC [Compound R935441]	586	
COC(=O)c1ccc(Cn2ncc3ccc(Nc4ncc(F)c(Nc5ccc6c(c5)NC(=O)C(C)(C)O6)n4)cc32)c(OC)c1 [Compound R935442]	701	

Compound	IC50 [2, 6] [nM]	also measured
CN(C=C1C=CC=C(Nc2nc(Cl)ncc2F)C1)C(=O)OC(C)(C)C [Compound R940315]		IC50 [2, 5]: > 10000 nM
COC1=CC=C(Nc2nc(Cl)ncc2F)CC1=CN(C(=O)OC(C)(C)C)C(C)C [Compound R940320]		IC50 [2, 5]: > 10000 nM; IC50 ([3]; Homo sapiens, Jurkat): 7820 nM
COc1c(C)cc(Nc2ncc(F)c(Nc3ccc4c(n3)NC(=O)C(C)(C)O4)n2)cc1Cl [Compound R940391]	261	
COC(=O)COc1cccc(Nc2ncc(F)c(Nc3ccc4c(n3)NC(=O)C(C)(C)O4)n2)c1 [Compound R940392]	145	
Cc1cc(Nc2ncc(F)c(Nc3ccc4c(c3)OCCO4)n2)cc(Cl)c1O [Compound R940393]	5260	
Cc1cc(Nc2ncc(F)c(Nc3ccc4c(n3)NC(=O)C(C)(C)O4)n2)cc(Cl)c1O [Compound R940394]	16500	
COc1c(C)cc(Nc2ncc(F)c(Nc3ccc4c(n3)NC(=O)C(C)(C)O4)n2)cc1C [Compound R940395]	> 10000	
COc1c(C)cc(Nc2ncc(F)c(Nc3ccc4c(c3)OCCO4)n2)cc1C [Compound R940396]	22700	
COc1c(C)cc(Nc2ncc(F)c(Nc3ccc4c(c3)OCCO4)n2)cc1Cl [Compound R940397]	3700	
COC(=O)N1CCN(c2ccc(Nc3nc(NC4CC4)ncc3F)cc2)CC1 [Compound R945373]	> 10000	
COC(=O)N1CCN(c2ccc(Nc3nc(NC4CCC4)ncc3F)cc2)CC1 [Compound R945374]	> 10000	
CC(=O)N(C)c1ccc(Nc2nc(NC3CC3)ncc2F)cc1 [Compound R945375]	> 10000	
Fc1cnc(NC2CC2)nc1NC1CC1 [Compound R945376]	> 10000	
CNC(=O)COc1cccc(Nc2ncc(F)c(Nc3ccc(N(C)C(C)=O)cc3)n2)c1 [Compound R945377]	1120	
CNC(=O)COc1cccc(Nc2ncc(F)c(Nc3cccc(OCC(=O)NC)c3)n2)c1 [Compound R945378]	754	
CC(=O)N(C)c1ccc(Nc2nc(NC3CCC3)ncc2F)cc1 [Compound R945379]	> 10000	
Fc1cnc(NC2CCC2)nc1NC1CCC1 [Compound R945380]	> 10000	
CC(=O)N1CCN(c2ccc(Nc3nc(NC4CC4)ncc3F)cc2)CC1 [Compound R945381]	> 10000	
CC(=O)N1CCN(c2ccc(Nc3nc(NC4CCC4)ncc3F)cc2)CC1 [Compound R945382]	> 10000	
CC(=O)N(C)c1ccc(Nc2ncc(F)c(NC3CCC3)n2)cc1 [Compound R945383]	985	
COC(=O)N1CCN(c2ccc(Nc3ncc(F)c(NC4CCC4)n3)cc2)CC1 [Compound R945386]	1390	
CNC(=O)COc1cccc(Nc2ncc(F)c(NC3CCC3)n2)c1 [Compound R945387]	1120	
O=C(COc1cccc(Nc2ncc(F)c(NC3CCC3)n2)c1)NC1CCC1 [Compound R945396]	2240	
COc1c(Cl)cc(Nc2ncc(F)c(NC3CCC3)n2)cc1Cl [Compound R945397]	928	

Compound	IC50 [2, 6] [nM]	also measured
CCCCOc1ccc(Nc2ncc(F)c(Nc3ccc4c(n3)NC(=O)CO4)n2)cc1 [Compound R945408]	> 10000	
O=C1COc2ccc(Nc3nc(Nc4ccc(Oc5ccccc5)cc4)ncc3F)nc2N1 [Compound R945409]	> 10000	
O=C1COc2ccc(Nc3nc(Nc4ccc(OCc5ccccc5)cc4)ncc3F)nc2N1 [Compound R945410]	> 10000	
CNC(=O)COc1cccc(Nc2ncc(F)c(Nc3ccc4c(c3)NC(=O)C(F)(F)O4)n2)c1 [Compound R945415]	46	
CC(=O)N(C)c1ccc(Nc2ncc(F)c(Nc3ccc4c(n3)NC(=O)CO4)n2)cc1 [Compound R945420]	436	
CCN(C(C)=O)c1ccc(Nc2ncc(F)c(Nc3ccc4c(n3)NC(=O)CO4)n2)cc1 [Compound R945421]	371	
COc1cc(Nc2nc(N[C@@H]3CCCC[C@H]3N)ncc2F)cc(OC)c1 [Compound R950439]	> 10000	
C[C@@H]1Oc2ccc(Nc3nc(N[C@@H]4CCCC[C@H]4N)ncc3F)cc2NC1=O [Compound R950441]	> 10000	
CCN(CC)CCNC(=O)c1ccc(Nc2ncc(F)c(Nc3ccc(Cl)c(Cl)c3)n2)cc1 [Compound R950445]	379	
CCN(CC)CCNC(=O)c1ccc(Nc2ncc(F)c(Nc3ccc4c(c3)NC(=O)[C@H](C)O4)n2)cc1 [Compound R950446]	148	
CCN(CC)CCNC(=O)c1ccc(Nc2ncc(F)c(Nc3ccc4c(c3)NC(=O)C(F)(F)O4)n2)cc1 [Compound R950449]	668	
COc1cc(Nc2nc(Nc3ccc(C(N)=O)cc3)ncc2F)cc(OC)c1 [Compound R950450]	1090	
NC(=O)c1ccc(Nc2ncc(F)c(Nc3ccc(Cl)c(Cl)c3)n2)cc1 [Compound R950451]	70	
C[C@@H]1Oc2ccc(Nc3nc(Nc4ccc(C(N)=O)cc4)ncc3F)cc2NC1=O [Compound R950452]	101	
NC(=O)c1ccc(Nc2ncc(F)c(Nc3ccc4c(c3)NC(=O)C(F)(F)O4)n2)cc1 [Compound R950455]	217	
NCc1ccc(Nc2ncc(F)c(Nc3ccc(Cl)c(Cl)c3)n2)cc1 [Compound R950459]	632	
C[C@@H]1Oc2ccc(Nc3nc(Nc4ccc(CNC(=O)OC(C)(C)C)cc4)ncc3F)cc2NC1=O [Compound R950460]	177	
C[C@@H]1Oc2ccc(Nc3nc(Nc4ccc(CN)cc4)ncc3F)cc2NC1=O [Compound R950461]	142	
CC(C)(C)OC(=O)NCc1ccc(Nc2ncc(F)c(Nc3ccc4c(c3)C(=O)NC(=O)C4(C)C)n2)cc1 [Compound R950462]	> 10000	
CC1(C)C(=O)NC(=O)c2cc(Nc3nc(Nc4ccc(CN)cc4)ncc3F)ccc21 [Compound R950463]	2460	
CC(C)(C)OC(=O)NCc1ccc(Nc2ncc(F)c(Nc3ccc4c(c3)NC(=O)C(F)(F)O4)n2)cc1 [Compound R950464]	244	
NCc1ccc(Nc2ncc(F)c(Nc3ccc4c(c3)NC(=O)C(F)(F)O4)n2)cc1 [Compound R950465]	351	
